# Measured values reported in publication PMC8512817 (Molecules, 2021).
# “And” between values parts separate entries of the source, which are not always exact repeats. Equal values may be shown once. Peptide text beside a SMILES is read from it.
# Biological target: T1, A9UPE9 PDZ (Monosiga brevicollis, UniProt A9UPE9)
# Assay: biochemical
# Details: fluorescence polarization, 30 nM reporter peptide, triplicate experiments
# Description: Expression and purification of all human and M. brevicollis PDZ domains followed a similar protocol, as previously reported for mbSHANK1 PDZ [48, 54]. Briefly, N-terminal His-tagged versions of A9UPE9 PDZ (residues 7–98) and DLG1-1 PDZ (residues 220–317) with cleavable TEV sites were inserted into the pET28a+ vector by gene synthesis (GenScript) and expressed in Escherichia coli BL21 (DE3) cells. Cells were lysed on ice using sonication. The lysis buffer used was 50 mM Tris pH 8.5, 200 mM NaCl, 10 mM CaCl2, 10 mM MgCl2, 20% (w/v) glycerol, 50 mM imidazole pH 8.5, 0.25 mM TCEP, DNAse, and protease inhibitor cocktail. Immobilized metal-affinity chromatography, 5 mL HisTrap (GE Healthcare, now Cytiva), was used to purify proteins from the clarified supernatant. The wash buffer used was 25 mM imidazole pH 8.5, 25 mM Tris pH 8.5, 250 mM NaCl, 10% (v/v) glycerol, and 0.25 mM TCEP, and the elution buffer was 400 mM imidazole pH 8.5, 25 mM Tris pH 8.5, 50 mM NaCl, 10% (v/v) glycerol, and 0.25 mM TCEP. Except for the protein used in binding experiments, the protein was then dialyzed in dialysis/gel filtration buffer (25 mM Tris pH 8.5, 150 mM NaCl, 10% (w/v) glycerol, 0.5 mM TCEP) and incubated at 4 °C overnight with TEV protease to cleave off the His-tag. The cleaved protein was then purified using a second nickel column with the wash and elution buffers described above. All proteins were further purified on a Superdex S75 column (Cytiva), using gel filtration buffer. Proteins were concentrated using Amicon centrifugal concentrators (3 MWCO). Concentrated proteins used in fluorescence polarization assays were flash frozen in liquid nitrogen for storage at −80 °C. The extinction coefficient values used for quantification of the proteins at A280 were 1490 cm^−1·M^−1 (A9UPE9) and 4470 cm^−1·M^−1 (DLG1-1).
# Fluorescence polarization assays were conducted, as previously described [12, 45, 46, 48, 54, 60]. […] Competition experiments were performed in at least triplicate, and binding affinities were determined using SOLVER, as previously described [12, 45, 46, 48, 54, 60].
# T1 sequence (A9UPE9 7-98): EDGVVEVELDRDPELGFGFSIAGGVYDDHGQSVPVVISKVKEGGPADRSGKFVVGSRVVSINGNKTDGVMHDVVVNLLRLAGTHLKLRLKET
row,Structure (SMILES),Kd
1,CC(C)C[C@H](NC(=O)[C@H](CCCNC(=N)N)NC(=S)Nc1ccc2c(c1)C(=O)OC21c2ccc(O)cc2Oc2cc(O)ccc21)C(=O)N[C@@H](CCC(N)=O)C(=O)N[C@@H](CCCNC(=N)N)C(=O)N[C@@H](CCCNC(=N)N)C(=O)N[C@@H](CCCNC(=N)N)C(=O)N[C@@H](CCC(=O)O)C(=O)N[C@H](C(=O)N[C@@H](CCC(N)=O)C(=O)N[C@H](C(=O)O)C(C)C)[C@@H](C)O [F*-HPV18 E6],6.9 µM and < 10 µM

# Same assay, conditions: fluorescence polarization, duplicate experiments
row,Structure (SMILES),Kd
1,CC(C)C[C@H](NC(=O)[C@H](CCC(N)=O)NC(=O)[C@@H](NC(=O)[C@H](CCC(=O)O)NC(=O)[C@H](CCCNC(=N)N)NC(=O)[C@H](CCCNC(=N)N)NC(=O)[C@@H](NC(=O)[C@H](CCCNC(=N)N)NC(=O)[C@H](CO)NC(=O)[C@H](CO)NC(=S)Nc1ccc2c(c1)C(=O)OC21c2ccc(O)cc2Oc2cc(O)ccc21)[C@@H](C)O)[C@@H](C)O)C(=O)O [FITC-SSRTRRETQL],19.5 ± 1.8 µM

# Biological target: T1, A9UPE9 PDZ
# Assay: biochemical
# Details: not given
# Excerpt: (§1) Starting with the HPV18 E6 C-terminal sequence, we designed a number of peptides to test specific peptide positions, including HPV16 E6, HPV18 E6, SRETTV, SRETDV, RRETTV, and RRETDV, where underlined residues differ from HPV18 E6. As a control, we also tested human SNX27, SHANK1, and GIPC PDZ targets previously studied, including GIRK3 (sequence: ESESKV), BPIX (WDETNL), GAIP (QSSSEA), TYRP1 (PNQSVV), and B1AR (ASESKV), as well as previously identified mbSHANK targets, including A9V7Z4 (EDETAL), A9UP44 (QSESRL), and A9UXE1 (QDETAL).
# (§2) Figure 6 The binding isotherms from competition fluorescence polarization experiments of A9UPE9 (left, as labeled), and DLG1-1 (right, as labeled) PDZ domains are shown with the HPV18 E6 variant peptides SRETTV and SRETDV. The average values are shown, with error bars representing standard deviation from at least triplicate experiments.
# (§3) Cells were lysed on ice using sonication.
# (§4) Binding curves were visualized using Kaleidagraph.
row,Structure (SMILES),Ki
1,CC[C@H](C)[C@H](NC(=O)[C@@H](N)C(C)C)C(=O)N[C@@H](C)C(=O)N[C@H](C(=O)N[C@@H](CCC(=O)O)C(=O)N[C@H](C(=O)O)C(C)C)[C@@H](C)O [DLL1/DLL4] (H-VIATEV-OH),240 ± 40 µM
2,CC(C)[C@H](NC(=O)[C@H](CO)NC(=O)[C@H](CO)NC(=O)[C@H](CCC(=O)O)NC(=O)[C@H](CO)NC(=O)CN)C(=O)O [Peptide A9UWP5_MONVE] (H-GSESSV-OH),490 ± 110 µM
3,CC(C)[C@H](NC(=O)[C@@H](NC(=O)[C@H](CO)NC(=O)[C@H](CCC(=O)O)NC(=O)[C@H](CCCNC(=N)N)NC(=O)[C@@H](N)Cc1c[nH]cn1)[C@@H](C)O)C(=O)O [Peptide A9V6G5_MONBE] (H-HRESTV-OH),< 100 µM and 97 µM

# Same assay, conditions: KI Values (μM) A9UPE9 PDZ, Table 3; competition FP, reporter 30 nM F*-HPV18 E6, 10.5 μM protein, at least triplicate, fitted with SOLVER
row,Structure (SMILES),Ki
1,CC(C)[C@H](NC(=O)[C@H](CCCCN)NC(=O)[C@H](CO)NC(=O)[C@H](CCC(=O)O)NC(=O)[C@H](CO)NC(=O)[C@@H](N)CCC(=O)O)C(=O)O [GIRK3] (H-ESESKV-OH),> 1000 µM
2,C[C@H](NC(=O)[C@H](CCC(=O)O)NC(=O)[C@H](CO)NC(=O)[C@H](CO)NC(=O)[C@H](CO)NC(=O)[C@@H](N)CCC(N)=O)C(=O)O [GAIP] (H-QSSSEA-OH),> 1000 µM
3,CC(C)C[C@H](NC(=O)[C@@H](N)CCCNC(=N)N)C(=O)N[C@@H](CCC(N)=O)C(=O)N[C@@H](CCCNC(=N)N)C(=O)N[C@@H](CCCNC(=N)N)C(=O)N[C@@H](CCCNC(=N)N)C(=O)N[C@@H](CCC(=O)O)C(=O)N[C@H](C(=O)N[C@@H](CCC(N)=O)C(=O)N[C@H](C(=O)O)C(C)C)[C@@H](C)O [HPV18 E6],16 ± 1 µM
4,CC(C)C[C@H](NC(=O)[C@H](C)NC(=O)[C@@H](NC(=O)[C@H](CCC(=O)O)NC(=O)[C@H](CC(=O)O)NC(=O)[C@@H](N)CCC(=O)O)[C@@H](C)O)C(=O)O [Peptide A9V7Z4] (H-EDETAL-OH),580 ± 160 µM
5,CC(C)C[C@H](NC(=O)[C@H](C)NC(=O)[C@@H](NC(=O)[C@H](CCC(=O)O)NC(=O)[C@H](CC(=O)O)NC(=O)[C@@H](N)CCC(N)=O)[C@@H](C)O)C(=O)O [Peptide A9UXE1] (H-QDETAL-OH),460 ± 210 µM
6,CC(C)C[C@H](NC(=O)[C@H](CCCNC(=N)N)NC(=O)[C@H](CO)NC(=O)[C@H](CCC(=O)O)NC(=O)[C@H](CO)NC(=O)[C@@H](N)CCC(N)=O)C(=O)O [Peptide A9UP44] (H-QSESRL-OH),64 ± 35 µM
7,CC(C)[C@H](NC(=O)[C@H](CCCCN)NC(=O)[C@H](CO)NC(=O)[C@H](CCC(=O)O)NC(=O)[C@H](CO)NC(=O)[C@H](C)N)C(=O)O [Peptide B1AR] (H-ASESKV-OH),95 ± 30 µM
8,CC(C)C[C@H](NC(=O)[C@H](CCC(N)=O)NC(=O)[C@@H](NC(=O)[C@H](CCC(=O)O)NC(=O)[C@H](CCCNC(=N)N)NC(=O)[C@H](CCCNC(=N)N)NC(=O)[C@@H](NC(=O)[C@H](CCCNC(=N)N)NC(=O)[C@H](CO)NC(=O)[C@@H](N)CO)[C@@H](C)O)[C@@H](C)O)C(=O)O [HPV16 E6],66 ± 24 µM
9,CC(C)[C@H](NC(=O)[C@@H](NC(=O)[C@H](CO)NC(=O)[C@H](CCC(N)=O)NC(=O)[C@H](CC(N)=O)NC(=O)[C@@H]1CCCN1)C(C)C)C(=O)O [TYRP1] (H-PNQSVV-OH),97 ± 24 µM
10,CC(C)C[C@H](NC(=O)[C@H](CC(N)=O)NC(=O)[C@@H](NC(=O)[C@H](CCC(=O)O)NC(=O)[C@H](CC(=O)O)NC(=O)[C@@H](N)Cc1c[nH]c2ccccc12)[C@@H](C)O)C(=O)O [BPIX] (H-WDETNL-OH),330 ± 160 µM

# Biological target: DLG1-1 PDZ (Homo sapiens, UniProt Q12959)
# Assay: biochemical
# Details: not given
# Excerpt: as §1, §2, §3, §4
# Chain of DLG1-1 PDZ (Q12959 220-317): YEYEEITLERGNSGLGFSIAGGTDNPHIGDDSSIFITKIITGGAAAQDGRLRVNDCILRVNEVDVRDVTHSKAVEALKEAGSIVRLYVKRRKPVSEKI
row,Structure (SMILES),Ki
1,CC(C)C[C@H](NC(=O)[C@H](C)NC(=O)[C@@H](NC(=O)[C@H](CCC(=O)O)NC(=O)[C@H](CC(=O)O)NC(=O)[C@@H](N)CCC(=O)O)[C@@H](C)O)C(=O)O [Peptide A9V7Z4] (H-EDETAL-OH),460 ± 190 µM
2,CC(C)C[C@H](NC(=O)[C@H](CC(N)=O)NC(=O)[C@@H](NC(=O)[C@H](CCC(=O)O)NC(=O)[C@H](CC(=O)O)NC(=O)[C@@H](N)Cc1c[nH]c2ccccc12)[C@@H](C)O)C(=O)O [BPIX] (H-WDETNL-OH),460 ± 140 µM
